Test results published in ChEMBL document CHEMBL4138146, “A Schmidt rearrangement-mediated synthesis of novel tetrahydro-benzo[1,4]diazepin-5-ones as potential anticancer and antiprotozoal agents” (Eur J Med Chem, 2017).

How the values were obtained:
Assay type in all cases: functional
SK-MEL-2 = assay: Growth inhibition of human SK-MEL-2 cells assessed as cell growth at 10^-7 M incubated for 48 hrs by sulforhodamine B assay relative to control; settings: SK-MEL-2, 48 h, read-out: Activity
RPMI-8226 = assay: Growth inhibition of human RPMI8226 cells assessed as cell growth at 10^-8 M incubated for 48 hrs by sulforhodamine B assay relative to control; settings: RPMI-8226, 48 h, read-out: Activity
NCI-H322M = assay: Growth inhibition of human NCI-H322M cells assessed as cell growth at 10^-5 M incubated for 48 hrs by sulforhodamine B assay relative to control; settings: read-out: Activity
HCC 2998 [1] = assay: Growth inhibition of human HCC2998 cells assessed as cell growth at 10^-7 M incubated for 48 hrs by sulforhodamine B assay relative to control; settings: HCC 2998, 48 h, read-out: Activity
MDA-MB-231 = assay: Growth inhibition of human MDA-MB-231 cells assessed as cell growth at 10^-5 M incubated for 48 hrs by sulforhodamine B assay relative to control; settings: MDA-MB-231, 48 h, read-out: Activity
T47D [2] = assay: Growth inhibition of human T47D cells assessed as cell growth at 10^-8 M incubated for 48 hrs by sulforhodamine B assay relative to control; settings: read-out: Activity
NCI-H522 [3] = assay: Growth inhibition of human NCI-H522 cells assessed as cell growth at 10^-8 M incubated for 48 hrs by sulforhodamine B assay relative to control; settings: NCI-H522, 48 h, read-out: Activity
SNB-75 = assay: Growth inhibition of human SNB75 cells assessed as cell growth at 10^-7 M incubated for 48 hrs by sulforhodamine B assay relative to control; settings: SNB-75, 48 h, read-out: Activity
HCC 2998 [4] = assay: Growth inhibition of human HCC2998 cells assessed as cell growth at 10^-6 M incubated for 48 hrs by sulforhodamine B assay relative to control; settings: HCC 2998, 48 h, read-out: Activity
A498 [5] = assay: Growth inhibition of human A498 cells assessed as cell growth at 10^-7 M incubated for 48 hrs by sulforhodamine B assay relative to control; settings: A498, 48 h, read-out: Activity
SK-OV-3 [6] = assay: Growth inhibition of human SKOV3 cells assessed as cell growth at 10^-7 M incubated for 48 hrs by sulforhodamine B assay relative to control; settings: SK-OV-3, 48 h, read-out: Activity
HCT-15 = assay: Growth inhibition of human HCT15 cells assessed as cell growth at 10^-4 M incubated for 48 hrs by sulforhodamine B assay relative to control; settings: HCT-15, 48 h, read-out: Activity
Hs-578T = assay: Growth inhibition of human Hs 578T cells assessed as cell growth at 10^-7 M incubated for 48 hrs by sulforhodamine B assay relative to control; settings: read-out: Activity
786-0 [7] = assay: Growth inhibition of human 786-0 cells assessed as cell growth at 10^-5 M incubated for 48 hrs by sulforhodamine B assay relative to control; settings: 786-0, 48 h, read-out: Activity
UACC-257 = assay: Growth inhibition of human UACC257 cells assessed as cell growth at 10^-7 M incubated for 48 hrs by sulforhodamine B assay relative to control; settings: UACC-257, 48 h, read-out: Activity
SF-268 [8] = assay: Growth inhibition of human SF268 cells assessed as cell growth at 10^-8 M incubated for 48 hrs by sulforhodamine B assay relative to control; settings: SF-268, 48 h, read-out: Activity
T47D [9] = assay: Growth inhibition of human T47D cells assessed as cell growth at 10^-6 M incubated for 48 hrs by sulforhodamine B assay relative to control; settings: read-out: Activity
786-0 [10] = assay: Growth inhibition of human 786-0 cells assessed as cell growth at 10^-6 M incubated for 48 hrs by sulforhodamine B assay relative to control; settings: 786-0, 48 h, read-out: Activity
SF-539 [11] = assay: Growth inhibition of human SF539 cells assessed as cell growth at 10^-4 M incubated for 48 hrs by sulforhodamine B assay relative to control; settings: SF-539, 48 h, read-out: Activity
UO-31 = assay: Growth inhibition of human UO31 cells assessed as cell growth at 10^-8 M incubated for 48 hrs by sulforhodamine B assay relative to control; settings: UO-31, 48 h, read-out: Activity
NCI-H226 = assay: Growth inhibition of human NCI-H226 cells assessed as cell growth at 10^-5 M incubated for 48 hrs by sulforhodamine B assay relative to control; settings: NCI-H226, 48 h, read-out: Activity
A549 = assay: Growth inhibition of human A549/ATCC cells assessed as cell growth at 10^-5 M incubated for 48 hrs by sulforhodamine B assay relative to control; settings: A549, 48 h, read-out: Activity
SK-OV-3 [12] = assay: Growth inhibition of human SKOV3 cells assessed as cell growth at 10^-4 M incubated for 48 hrs by sulforhodamine B assay relative to control; settings: SK-OV-3, 48 h, read-out: Activity
A498 [13] = assay: Growth inhibition of human A498 cells assessed as cell growth at 10^-6 M incubated for 48 hrs by sulforhodamine B assay relative to control; settings: A498, 48 h, read-out: Activity
K562 = assay: Growth inhibition of human K562 cells assessed as cell growth at 10^-5 M incubated for 48 hrs by sulforhodamine B assay relative to control; settings: K562, 48 h, read-out: Activity
HCT-116 = assay: Growth inhibition of human HCT116 cells assessed as cell growth at 10^-5 M incubated for 48 hrs by sulforhodamine B assay relative to control; settings: HCT-116, 48 h, read-out: Activity
COLO 205 = assay: Growth inhibition of human COLO205 cells assessed as cell growth at 10^-7 M incubated for 48 hrs by sulforhodamine B assay relative to control; settings: COLO 205, 48 h, read-out: Activity
SW-620 = assay: Growth inhibition of human SW620 cells assessed as cell growth at 10^-4 M incubated for 48 hrs by sulforhodamine B assay relative to control; settings: SW-620, 48 h, read-out: Activity
SF-268 [14] = assay: Growth inhibition of human SF268 cells assessed as cell growth at 10^-7 M incubated for 48 hrs by sulforhodamine B assay relative to control; settings: SF-268, 48 h, read-out: Activity
NCI-H522 [15] = assay: Growth inhibition of human NCI-H522 cells assessed as cell growth at 10^-4 M incubated for 48 hrs by sulforhodamine B assay relative to control; settings: NCI-H522, 48 h, read-out: Activity
LOX IMVI = assay: Growth inhibition of human LOXIMVI cells assessed as cell growth at 10^-5 M incubated for 48 hrs by sulforhodamine B assay relative to control; settings: read-out: Activity
HL-60(TB) = assay: Growth inhibition of human HL-60(TB) cells assessed as cell growth at 10^-6 M incubated for 48 hrs by sulforhodamine B assay relative to control; settings: HL-60, 48 h, read-out: Activity
SF-539 [16] = assay: Growth inhibition of human SF539 cells assessed as cell growth at 10^-5 M incubated for 48 hrs by sulforhodamine B assay relative to control; settings: SF-539, 48 h, read-out: Activity
CCRF-CEM = assay: Growth inhibition of human CCRF-CEM cells assessed as cell growth at 10^-4 M incubated for 48 hrs by sulforhodamine B assay relative to control; settings: read-out: Activity

In the case of `CCCCOc1nc2ccccc2cc1C1CNC(=O)c2ccccc2N1` (centres undefined), the growth at 0.1 µM (SK-MEL-2) is reported as 99%, the growth at 0.01 µM (RPMI-8226) is reported as 95% and the growth at 10 µM (NCI-H322M) is reported as 31%. The growth at 0.1 µM (HCC 2998 [1]) was 93%, the growth at 10 µM (MDA-MB-231) was 25% and the growth at 0.01 µM (T47D [2]) was 86%. For the same compound, the growth at 0.01 µM (NCI-H522 [3]) was 90%, the growth at 0.1 µM (SNB-75) was 89% and the growth at 1 µM (HCC 2998 [4]) was 93%. It also gave a growth at 0.1 µM (A498 [5]) of 62%, a growth at 0.1 µM (SK-OV-3 [6]) of 98% and a growth at 100 µM (HCT-15) of -74%. The growth at 0.1 µM (Hs-578T) was 97%, the growth at 10 µM (786-0 [7]) was 1% and the growth at 0.1 µM (UACC-257) was 92%. It also gave a growth at 0.01 µM (SF-268 [8]) of 95%, a growth at 1 µM (T47D [9]) of 86% and a growth at 1 µM (786-0 [10]) of 90%. It also gave a growth at 100 µM (SF-539 [11]) of -70%, a growth at 0.01 µM (UO-31) of 80% and a growth at 10 µM (NCI-H226) of 7%. It also gave a growth at 10 µM (A549) of 14%, a growth at 100 µM (SK-OV-3 [12]) of -21% and a growth at 1 µM (A498 [13]) of 42%. For the same compound, the growth at 10 µM (K562) was 7%, the growth at 10 µM (HCT-116) was -19% and the growth at 0.1 µM (COLO 205) was 95%. It also gave a growth at 100 µM (SW-620) of -24%, a growth at 0.1 µM (SF-268 [14]) of 92% and a growth at 100 µM (NCI-H522 [15]) of -35%. For the same compound, the growth at 10 µM (LOX IMVI) was 15%, the growth at 1 µM (HL-60(TB)) was -19% and the growth at 10 µM (SF-539 [16]) was -12%. For the same compound, the growth at 100 µM (CCRF-CEM) was -17%.
